In experiment [1] the test system is RAW264.7 cells. Put plainly: PGE2 produced by LPS stimulation in RAW264.7 cells. The class given is cell-based, mouse. The following applies: 0.1 microgram/mL, single substance, P<0.01 vs LPS group. On the procedure:
Suspend mouse-derived macrophage-like cells RAW264.7 in the culture medium “Minimum Essential Medium (MEM)” containing a 0.1 mM nonessential amino acid mixture, 10% fetal calf serum (FCS), penicillin (100 units/mL), and streptomycin (100 microgram/mL) in concentration of 1×10^6 cells/mL. Then, the cells were seeded into 48-well plate (200 microliter/well).
In 48 to 72 hours after the cultivation, vacuum the culture medium. Then clean the culture medium thrice with the serum-free culture medium (which contains no FCS). Then, add the serum-free culture medium (170 microliter) to each well.
After that, add the LPS solution (10 microlitre) which was prepared to 200 microgram/mL in the serum-free culture medium, to each well (final concentration 10 microgram/mL). Then, add the serum-free culture medium (10 microliter) to the well of the control group. Add 20 microliter each of the red ginger extract sample solution which was prepared to be the concentrations of […] in the serum-free culture medium, and add indomethacin in concentration of 8.9 microgram/mL (equivalent to 25 microM) to three wells, each. (The final concentrations of the red ginger extract are to be 0.1, 0.3, 1, 3, and 10 microgram/mL, and the final concentration of indomethacin is to be 0.89microgram/mL which is equivalent to 2.5 microM). […]

The subject of experiment [2] is RAW264.7 cells. Put plainly: NO production inhibition test (LPS, Griess Method). The class given is cell-based, mouse. As to the method: A 200 microliter each of the continuously-cultivated RAW264.7 cells (10^6 cells/mL) should be seeded into 48-well plate. After 24 hours, replace the culture medium with a serum-free culture medium. Then, add the LPS (final concentration: 10 microgram/mL) and samples (Examples 1 & 2), and then cultivate for 24 hours. Collect the supernatant (100 microliter) and determine the amount of NO by the Griess Method.
(In general: The Griess reaction detects nitrite, a stable product of nitric oxide.)

Another experiment concerns NO production. Conditions: concentration of 21.5 to 215 microgram/mL (FIG. 9); cited from earlier work.

On to `CCCCC[C@H](O)CC(=O)CCc1ccc(O)c(OC)c1` [Example 6-gingerol, 6-gingerol], for which the “Inhibition ratio of PGE2 production” value in the experiment with RAW264.7 cells [1] worked out at 37.8%. Further, the NO in supernatant stood at 3.50 ± 0.26 µM in the experiment with RAW264.7 cells [2] (1 μg/mL, LPS 10 microgram/mL, 24 hours, average ± SD); 3.66 ± 0.33 µM with RAW264.7 cells [2] (3 μg/mL); 3.27 ± 0.26 µM in the experiment on RAW264.7 cells [2] (10 μg/mL); 3.11 ± 0.22 µM in the experiment with RAW264.7 cells [2] (30 μg/mL); 2.81 ± 0.47 µM with RAW264.7 cells [2] (100 μg/mL). Also, the “Inhibition ratio (NO production)” value with RAW264.7 cells [2] (30 μg/mL) was “(4.3) %”; in the experiment on RAW264.7 cells [2] (100 μg/mL) it was “(17.6) %”.
In the case of `Cl.N[C@H]1C(O)O[C@H](CO)[C@@H](O)[C@@H]1O` (stereo partly drawn) [glucosamine hydrochloride], the “Inhibitory effect on NO production” value with NO production is listed as “has the inhibitory effect on NO production”.

Values taken from patent US8017162B2, “Anti-inflammatory agent” (Oryza Oil & Fat Chemical Co., Ltd., priority 2005, dated 2011).
